Measured values as given in US20070248694A1, “Anti-inflammatory properties of a standardized extract from Euphorbia hirta (PM-251) activity and for treating conditions of inflammation” (PhytoMyco Research Corporation, priority 2006, published 2007).

Key:
Assay type in all cases: in vivo, Wister strain - Albino rats
[1] = tested on: Carrageenin induced rat paw edema; assay: Carrageenin induced rat paw edema; settings: 100 mg/kbw oral single dose
Method: Dose Levels • Control: One ml of 1% gum acacia • Standard: 100 mg/kbw (kilogram body weight) in acute models and sub-acute models. • T1:100 mg/kbw and T2:200 mg/kbw in Carrageenin and Turpentine models and T1: […] All drugs (dose) were given only once a day. 2. Method of performance study • Main assays: The test article, the standard and control were administered: a. Carrageenin induced rat paw edema: The respective drug was administered in single dose through mouth 1 hour before the administration of phlogistic agent. The method used comprises of the study of the acute inflammatory reaction induced by injecting the phlogistic agent carrageenin into the subplantar surface of the right hindpaw of the rat. […] Lesser the mean paw volume more was the anti-inflammatory potential and vice versa. • b. Turpentine induced arthritis: The respective drug was administered in single dose through mouth 1 hour before the administration of phlogistic agent. This is one of the commonly employed models to induce arthritis in the rat; 0.01 ml turpentine was injected to the right knee joint. The maximum diameter of the right knee joint was measured at ‘0’ hour and at the end of ‘4’ hours after the injection with the help of screw gauge and the difference between ‘0’ hour and ‘4’ hour reading gave the actual arthritis. […]

[2] = tested on: Cotton pellet induced granuloma; assay: Cotton wool pellet induced granuloma; settings: 100 mg/kbw oral once daily
Method: (§1) Dose Levels • Control: One ml of 1% gum acacia • Standard: 100 mg/kbw (kilogram body weight) in acute models and sub-acute models. • T1:100 mg/kbw and T2:200 mg/kbw in Carrageenin and Turpentine models and T1: 200 mg/kbw and T2:400 mg/kbw in Cotton pellet granuloma and Formalin induced arthritis model. […] All drugs (dose) were given only once a day. 2. Method of performance study • Main assays: The test article, the standard and control were administered: a. Carrageenin induced rat paw edema: The respective drug was administered in single dose through mouth 1 hour before the administration of phlogistic agent. The method used comprises of the study of the acute inflammatory reaction induced by injecting the phlogistic agent carrageenin into the subplantar surface of the right hindpaw of the rat. […] Lesser the mean paw volume more was the anti-inflammatory potential and vice versa. • b. Turpentine induced arthritis: The respective drug was administered in single dose through mouth 1 hour before the administration of phlogistic agent. […] The maximum diameter of the right knee joint was measured at ‘0’ hour and at the end of ‘4’ hours after the injection with the help of screw gauge and the difference between ‘0’ hour and ‘4’ hour reading gave the actual arthritis. […]

[3] = tested on: Formalin induced peritonitis; assay: Formalin induced experimental peritonitis; settings: 100 mg/kbw oral single dose
Method: as §1

[4] = tested on: Turpentine induced arthritis; assay: Turpentine induced arthritis; settings: 100 mg/kbw oral single dose
Method: Dose Levels • Control: One ml of 1% gum acacia • Standard: 100 mg/kbw (kilogram body weight) in acute models and sub-acute models. • T1:100 mg/kbw and T2:200 mg/kbw in Carrageenin and Turpentine models and T1: […] All drugs (dose) were given only once a day. 2. Method of performance study • Main assays: The test article, the standard and control were administered: a. Carrageenin induced rat paw edema: The respective drug was administered in single dose through mouth 1 hour before the administration of phlogistic agent. The method used comprises of the study of the acute inflammatory reaction induced by injecting the phlogistic agent carrageenin into the subplantar surface of the right hindpaw of the rat. […] Lesser the mean paw volume more was the anti-inflammatory potential and vice versa. • b. Turpentine induced arthritis: The respective drug was administered in single dose through mouth 1 hour before the administration of phlogistic agent. This is one of the commonly employed models to induce arthritis in the rat; 0.01 ml turpentine was injected to the right knee joint. The maximum diameter of the right knee joint was measured at ‘0’ hour and at the end of ‘4’ hours after the injection with the help of screw gauge and the difference between ‘0’ hour and ‘4’ hour reading gave the actual arthritis. Lesser the mean diameter right knee joint more the anti-inflammatory potential and vice versa. • c. Formalin induced experimental peritonitis: The respective drug was administered in single dose through mouth 1 hour before the administration of phlogistic agent by injecting 1 ml of 1% formalin in to the peritoneal cavity. […] Lesser the mean exudates more is the anti-inflammatory potential and vice versa. • d. Cotton wool pellet induced granuloma: The respective drug was administered by mouth in single dose one hour prior to the cotton pellet implantation on the first day and subsequently every day for next five days. The extent of formation of foreign body granuloma (granulation tissue) is the main criterion for evaluating anti-inflammatory activity. […]

COc1ccc2c(c1)c(CC(=O)O)c(C)n2C(=O)c1ccc(Cl)cc1 [Indomethacin]
Inhibitory Potency Values [1]: 3.98
Mean volume (in ml.) (±) SEM ([1]; paw edema volume, difference 0 h to 4 h): 0.88 ± 0.52 mL
Inhibitory Potency Values [2]: 2.38
Mean volume (in mg.) (±) ([2]; granulation tissue weight on dried cotton pellet, sixth day): 6.54 ± 0.36 mg
Inhibitory Potency Values [3]: 1.38
Mean volume (in ml.) (±) SEM ([3]; peritoneal exudate volume after 4 hours): 0.57 ± 0.14 mL
% inhibition with respect to control [4]: 84.95%
Inhibitory Potency Values [4]: 0.85
Mean volume (in mm.) (±) SEM ([4]; right knee joint diameter, difference 0 h to 4 h): 1.55 ± 0.19 mm
